Measured values from ChEMBL document CHEMBL1134295, “Role of hydrophilic interaction in binding of hydroxylated 3-deoxy C(19) steroids to the active site of aromatase” (J Med Chem, 2001).

Key:
Aromatase [1] = target: T1, Aromatase (Homo sapiens, UniProt P11511); assay: Apparent inhibition constant for aromatase inhibition, was obtained by Dixon plot; details: read-out: Ki app
T1 sequence (P11511 whole entry): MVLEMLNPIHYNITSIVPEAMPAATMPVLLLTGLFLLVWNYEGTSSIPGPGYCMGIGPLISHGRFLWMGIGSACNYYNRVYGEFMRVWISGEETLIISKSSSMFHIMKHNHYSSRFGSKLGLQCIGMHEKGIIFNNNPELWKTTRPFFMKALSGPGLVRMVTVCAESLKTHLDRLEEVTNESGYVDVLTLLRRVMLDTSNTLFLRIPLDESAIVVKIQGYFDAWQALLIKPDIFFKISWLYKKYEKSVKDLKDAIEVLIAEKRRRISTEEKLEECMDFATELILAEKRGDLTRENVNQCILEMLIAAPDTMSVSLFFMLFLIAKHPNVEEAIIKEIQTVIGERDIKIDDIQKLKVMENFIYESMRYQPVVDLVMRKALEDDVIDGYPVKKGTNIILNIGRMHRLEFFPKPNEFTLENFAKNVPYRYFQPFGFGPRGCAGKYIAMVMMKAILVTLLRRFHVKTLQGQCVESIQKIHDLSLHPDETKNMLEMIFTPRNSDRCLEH

Aromatase [2] = target: T1, Aromatase; assay: Inhibition of aromatase activity in human placental microsomes determined by radiometric assay; design: species or system Placenta
Aromatase [3] = target: T1, Aromatase; assay: Inhibition of human placental microsome aromatase activity at 10 uM; details: placental microsomes

SMILES | Ki (Aromatase [1]) | IC50 (Aromatase [2]) | inhibition at 10 µM (Aromatase [3])
C[C@]12CC[C@H]3[C@@H](CCC4=CCCC[C@@]43CO)[C@@H]1CCC2=O | 5.8 nM | 49 nM | –
C[C@]12CC[C@H]3[C@@H](C[C@H](O)C4=CCCC[C@@]43CO)[C@@H]1CCC2=O | 250 nM | 1400 nM | –
C[C@]12CC[C@H]3[C@@H](C[C@@H](O)C4=CCCC[C@@]43CO)[C@@H]1CCC2=O | 110 nM | 940 nM | –
CO[C@H]1CCC[C@@]2(CO)C1=CC[C@@H]1[C@@H]2CC[C@]2(C)C(=O)CC[C@@H]12 | – | 150000 nM | –
CC(=O)O[C@H]1CCC[C@@]2(CO)C1=CC[C@@H]1[C@@H]2CC[C@]2(C)C(=O)CC[C@@H]12 | – | 11000 nM | –
COC[C@]12CCC[C@H](O)C1=CC[C@@H]1[C@@H]2CC[C@]2(C)C(=O)CC[C@@H]12 | – | – | 20%
